# In ChEMBL document CHEMBL1136431, “Preparation and pharmacological profile of 7-(alpha-azolylbenzyl)-1H-indoles and indolines as new aromatase inhibitors” (Bioorg Med Chem Lett, 2003):
# Legend:
# [1] = target: T1, Cytochrome P450 17A1 (steroid 17-alpha-hydroxylase/17,20 lyase) (Rattus norvegicus, UniProt P11715); test: Inhibition Cytochrome P450 17A1 of rat testicular microsomes at 2.5 uM with 25 uM progesterone; details: probe progesterone (25 uM)
# T1 sequence (P11715 whole entry): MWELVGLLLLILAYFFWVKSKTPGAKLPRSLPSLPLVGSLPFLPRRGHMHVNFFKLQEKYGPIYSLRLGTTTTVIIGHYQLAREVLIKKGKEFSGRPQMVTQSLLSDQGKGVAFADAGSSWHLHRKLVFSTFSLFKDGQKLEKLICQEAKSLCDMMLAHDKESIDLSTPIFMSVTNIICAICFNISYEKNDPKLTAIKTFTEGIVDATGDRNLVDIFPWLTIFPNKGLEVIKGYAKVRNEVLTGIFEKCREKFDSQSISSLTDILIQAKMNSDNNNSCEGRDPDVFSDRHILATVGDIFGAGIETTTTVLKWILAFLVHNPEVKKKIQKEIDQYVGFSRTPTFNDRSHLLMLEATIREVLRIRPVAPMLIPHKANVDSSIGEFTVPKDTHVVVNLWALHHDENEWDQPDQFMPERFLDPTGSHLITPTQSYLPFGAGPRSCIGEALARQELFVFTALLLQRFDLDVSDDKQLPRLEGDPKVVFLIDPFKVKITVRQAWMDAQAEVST
# [2] = target: T2, Aromatase (Homo sapiens, UniProt P11511)
# T2 sequence (P11511 whole entry): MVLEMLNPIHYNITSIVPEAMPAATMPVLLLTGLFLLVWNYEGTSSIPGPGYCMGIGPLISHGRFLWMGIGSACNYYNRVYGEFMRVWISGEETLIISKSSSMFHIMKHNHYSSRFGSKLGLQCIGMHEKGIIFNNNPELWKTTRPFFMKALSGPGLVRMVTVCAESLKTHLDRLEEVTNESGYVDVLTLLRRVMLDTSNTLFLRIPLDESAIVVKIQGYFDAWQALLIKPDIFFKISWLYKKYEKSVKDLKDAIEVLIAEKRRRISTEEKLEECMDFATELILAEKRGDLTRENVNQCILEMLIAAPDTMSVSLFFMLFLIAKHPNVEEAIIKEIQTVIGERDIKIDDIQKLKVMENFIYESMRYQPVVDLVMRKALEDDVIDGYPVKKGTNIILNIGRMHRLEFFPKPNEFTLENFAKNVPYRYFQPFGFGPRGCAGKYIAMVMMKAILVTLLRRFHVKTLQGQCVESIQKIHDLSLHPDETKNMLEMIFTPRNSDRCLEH
# Description: Inhibition of cytochrome P450 19A1 of human placental microsomes with [1-beta,2beta-3H]testosterone
# [3] = target: T2, Aromatase; test: In vitro inhibition of cytochrome P450 19A1 from human placental microsomes with 2.5 uM [1-beta,2beta-3H]testosterone
# [4] = target: T2, Aromatase; test: Relative potency as IC50 compared to aminoglutethimide IC50=[…] uM
SMILES,inhibition at 2.5 µM [1],IC50 [2],IC50 [3],Relative potency [4]
CCn1ccc2cccc(C(c3ccc(Br)cc3)n3ccnc3)c21 (stereo unspecified),29%,70 nM,–,–
CCN1CCc2cc(Br)cc(C(c3ccc(F)cc3)n3ccnc3)c21 (stereo unspecified),8%,90 nM,–,–
CCn1ccc2cccc(C(c3cccc(Cl)c3)n3ccnc3)c21 (stereo unspecified),43%,–,–,–
CCN1CCc2cccc(C(c3cccc(Cl)c3)n3ccnc3)c21 (stereo unspecified),38%,–,–,–
CCN1CCc2cc(Cl)cc(C(c3ccc(F)cc3)n3ccnc3)c21 (stereo unspecified),23%,–,–,–
CCn1ccc2cccc(C(c3ccc(Cl)cc3)n3ccnc3)c21 (stereo unspecified),29%,–,–,–
CCN1CCc2cccc(C(c3ccc(F)cc3)n3ccnc3)c21 (stereo unspecified),37%,–,61.5 nM,–
CCn1ccc2cc(Br)cc(C(c3ccc(F)cc3)n3ccnc3)c21 (stereo unspecified),9%,200 nM,–,–
CCN1CCc2cccc(C(c3ccc(F)cc3)n3cncn3)c21 (stereo unspecified),–,2900 nM,–,10
CCn1ccc2cccc(C(c3ccc(F)cc3)n3ccnc3)c21 (stereo unspecified),37%,62 nM,–,–
